# Measurements reported in PubChem BioAssay (NCI).
#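 Cultured in 96-well plates, cells were exposed to test compound for 48 hours across five concentrations. Definition used: TGI = concentration required for complete inhibition of growth.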
# Tests used:
# Assay in all cases: inhibition of tumour cell growth, NCI panel, 48 h
# [1] = test system: PC-3 prostate
# [2] = test system: SF-268 CNS
# [3] = test system: MDA-N
# [4] = test system: UACC-62 melanoma
# [5] = test system: NCI/ADR-RES ovarian
# [6] = test system: UO-31 renal
# [7] = test system: BT-549 breast
# [8] = test system: SK-MEL-5 melanoma
# [9] = test system: OVCAR-4 ovarian
# [10] = test system: T-47D breast
# [11] = test system: M14 melanoma
# [12] = test system: ACHN renal
# [13] = test system: SK-MEL-2 melanoma
# [14] = test system: HCT-116 colon
# [15] = test system: 786-0 renal
# [16] = test system: OVCAR-5 ovarian
# [17] = test system: HL-60(TB) leukemia
# [18] = test system: SNB-19 CNS
# [19] = test system: U251 CNS
# [20] = test system: MDA-MB-231 breast
# [21] = test system: CCRF-CEM leukemia
# [22] = test system: MDA-MB-435
# [23] = test system: UACC-257 melanoma
# [24] = test system: MOLT-4 leukemia
# [25] = test system: HOP-62 NSCLC
# [26] = test system: COLO 205 colon
# [27] = test system: RXF 393 renal
# [28] = test system: SN12C renal
# [29] = test system: HS 578T breast
# [30] = test system: IGROV1 ovarian
# [31] = test system: HOP-92 NSCLC
# [32] = test system: SF-295 CNS
# [33] = test system: LOX IMVI melanoma
# [34] = test system: HCC-2998 colon
# [35] = test system: MALME-3M melanoma
# [36] = test system: MCF7 breast
# [37] = test system: A549 NSCLC
# [38] = test system: NCI-H23 lung
# [39] = test system: CAKI-1 renal
# [40] = test system: OVCAR-8 ovarian
# [41] = test system: OVCAR-3 ovarian
# [42] = test system: SF-539 CNS
# [43] = test system: KM12 colon
# [44] = test system: HT29 colon
# [45] = test system: TK-10 renal
# [46] = test system: A498 renal
# [47] = test system: SK-MEL-28 melanoma
# [48] = test system: NCI-H460 lung
# [49] = test system: NCI-H226 lung
# [50] = test system: K-562 leukemia
# [51] = test system: SK-OV-3 ovarian
# [52] = test system: DU-145 prostate
# [53] = test system: SW-620 colon
# [54] = test system: NCI-H522 lung
# [55] = test system: HCT-15 colon
# [56] = test system: SNB-75 CNS
# [57] = test system: EKVX NSCLC
# [58] = test system: SR leukemia
smiles,measurement,setting,value
COc1ccc(OC)c2c(/C=C/c3ccc(N(C)C)cc3)ccnc12,TGI,[1],> 10 µM
same,TGI,[2],> 10 µM
same,TGI,[3],> 10 µM
same,TGI,[4],> 10 µM
same,TGI,[5],> 10 µM
same,TGI,[6],> 10 µM
same,TGI,[7],> 10 µM
same,TGI,[8],> 10 µM
same,TGI,[9],> 10 µM
same,TGI,[10],> 10 µM
same,TGI,[11],> 10 µM
same,TGI,[12],> 10 µM
same,TGI,[13],> 10 µM
same,TGI,[14],8.11 µM
same,TGI,[15],> 10 µM
same,TGI,[16],> 10 µM
same,TGI,[17],3.86 µM
same,TGI,[18],> 10 µM
same,TGI,[19],> 10 µM
same,TGI,[20],> 10 µM
same,TGI,[21],9.28 µM
same,TGI,[22],> 10 µM
same,TGI,[23],> 10 µM
same,TGI,[24],> 10 µM
same,TGI,[25],> 10 µM
same,TGI,[26],> 10 µM
same,TGI,[27],> 10 µM
same,TGI,[28],> 10 µM
same,TGI,[29],> 10 µM
same,TGI,[30],> 10 µM
same,TGI,[31],> 10 µM
same,TGI,[32],> 10 µM
same,TGI,[33],> 10 µM
same,TGI,[34],> 10 µM
same,TGI,[35],> 10 µM
same,TGI,[36],> 10 µM
same,TGI,[37],> 10 µM
same,TGI,[38],> 10 µM
same,TGI,[39],> 10 µM
same,TGI,[40],> 10 µM
same,TGI,[41],> 10 µM
same,TGI,[42],6.07 µM
same,TGI,[43],> 10 µM
same,TGI,[44],> 10 µM
same,TGI,[45],> 10 µM
same,TGI,[46],> 10 µM
same,TGI,[47],> 10 µM
same,TGI,[48],> 10 µM
same,TGI,[49],> 10 µM
same,TGI,[50],> 10 µM
same,TGI,[51],> 10 µM
same,TGI,[52],> 10 µM
same,TGI,[53],> 10 µM
same,TGI,[54],> 10 µM
same,TGI,[55],> 10 µM
same,TGI,[56],> 10 µM
same,TGI,[57],> 10 µM
C[C@H](N)C(=O)Nc1ccc(-c2nc3ccccc3s2)cc1,TGI,[1],63.7 µM
same,TGI,[2],> 100 µM
same,TGI,[3],38.4 µM
same,TGI,[4],35.4 µM
same,TGI,[5],> 100 µM
same,TGI,[6],28.4 µM
same,TGI,[7],> 100 µM
same,TGI,[8],43 µM
same,TGI,[9],36.6 µM
same,TGI,[10],36 µM
same,TGI,[11],24.1 µM
same,TGI,[12],32.8 µM
same,TGI,[58],31.2 µM
same,TGI,[13],99.4 µM
same,TGI,[14],28.5 µM
same,TGI,[15],29.1 µM
same,TGI,[16],43.6 µM
same,TGI,[18],49.6 µM
same,TGI,[19],32.2 µM
same,TGI,[20],36.5 µM
same,TGI,[21],24.8 µM
same,TGI,[22],30.7 µM
same,TGI,[23],> 100 µM
same,TGI,[24],31.4 µM
same,TGI,[25],72.9 µM
same,TGI,[26],33.1 µM
same,TGI,[27],> 100 µM
same,TGI,[28],56 µM
same,TGI,[29],> 100 µM
same,TGI,[30],40.4 µM
same,TGI,[31],95.3 µM
same,TGI,[32],33.9 µM
same,TGI,[33],> 100 µM
same,TGI,[34],45.8 µM
same,TGI,[35],39.5 µM
same,TGI,[37],29.6 µM
same,TGI,[38],> 100 µM
same,TGI,[39],36.3 µM
same,TGI,[40],66.8 µM
same,TGI,[41],36.9 µM
same,TGI,[42],52.3 µM
same,TGI,[43],31.1 µM
same,TGI,[44],38.2 µM
same,TGI,[45],60.8 µM
same,TGI,[46],90 µM
same,TGI,[47],32.5 µM
same,TGI,[48],34.8 µM
same,TGI,[49],97.8 µM
same,TGI,[50],37.6 µM
same,TGI,[51],57.2 µM
same,TGI,[52],38.5 µM
same,TGI,[53],31 µM
same,TGI,[54],48 µM
same,TGI,[55],36.2 µM
same,TGI,[56],41.6 µM
same,TGI,[57],26.8 µM
